From the supplement of paper PMC10307832

Columns and labels:
Assay in all cases: relative viability (nuclei count vs DMSO), 5 days (fraction); higher = more cells survive
RERF-LC-KJ = system: RERF-LC-KJ
In short: (§1)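 Cells from lung cancer lines were seeded into 1536-well plates and, one day later, dosed by pin tool. Treatments were either a single drug or a fixed dose of an anchor drug with five library-drug doses (not always all listed) in √10 steps. After 5 days, nuclei were stained in a one-step fixation (final 0.05% Triton X-100, 1% formaldehyde, 1 ug/ml Hoechst) and counted on 4× images, and relative viability is the treated-to-vehicle nuclei ratio, as the median of duplicate plates.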

UMC-11 = system: UMC-11
In short: as §1

NCI-H2087 = system: NCI-H2087
In short: as §1

SK-MES-1 = system: SK-MES-1
In short: as §1

BEN = system: BEN
In short: as §1

LC-2-ad = system: LC-2-ad
In short: as §1

NCI-H1395 = system: NCI-H1395
In short: as §1

201T = system: 201T
In short: as §1

LXF-289 = system: LXF-289
In short: as §1

NCI-H2170 = system: NCI-H2170
In short: as §1

HARA = system: HARA
In short: as §1

HOP-62 = system: HOP-62
In short: as §1

LOU-NH91 = system: LOU-NH91
In short: as §1

COR-L 105 = system: COR-L 105
In short: as §1

H3255 = system: H3255
In short: as §1

NCI-H1993 = system: NCI-H1993
In short: as §1

HCC-78 = system: HCC-78
In short: as §1

EMC-BAC-2 = system: EMC-BAC-2
In short: as §1

LU99A = system: LU99A
In short: as §1

NCI-H2126 = system: NCI-H2126
In short: as §1

SW 900 = system: SW 900
In short: as §1

NCI-H650 = system: NCI-H650
In short: as §1

## Cc1csc(=NC2CCCCC2)n1/N=C/c1ccc(O)c(O)c1O [MIM1] + Cc1cc(Nc2cc(N3CCN(C)CC3)nc(Sc3ccc(NC(=O)C4CC4)cc3)n2)n[nH]1 [Tozasertib] (partner 0.1 µM)
RERF-LC-KJ; first compound 0.2 µM
  relative viability: 0.507
RERF-LC-KJ; first compound 0.6325 µM
  relative viability: 0.503
RERF-LC-KJ; first compound 2 µM
  relative viability: 0.317
RERF-LC-KJ; first compound 6.325 µM
  relative viability: 0.231
RERF-LC-KJ; first compound 20 µM
  relative viability: 0.224
UMC-11; first compound 0.2 µM
  relative viability: 0.197
UMC-11; first compound 2 µM
  relative viability: 0.196
UMC-11; first compound 6.325 µM
  relative viability: 0.207
UMC-11; first compound 20 µM
  relative viability: 0.187
NCI-H2087; first compound 0.2 µM
  relative viability: 0.26
NCI-H2087; first compound 0.6325 µM
  relative viability: 0.284
NCI-H2087; first compound 2 µM
  relative viability: 0.249
NCI-H2087; first compound 6.325 µM
  relative viability: 0.22
NCI-H2087; first compound 20 µM
  relative viability: 0.2
SK-MES-1; first compound 0.2 µM
  relative viability: 0.909
SK-MES-1; first compound 0.6325 µM
  relative viability: 0.848
SK-MES-1; first compound 2 µM
  relative viability: 0.742
SK-MES-1; first compound 6.325 µM
  relative viability: 0.643
SK-MES-1; first compound 20 µM
  relative viability: 0.492
BEN; first compound 0.2 µM
  relative viability: 0.549
BEN; first compound 0.6325 µM
  relative viability: 0.438
BEN; first compound 2 µM
  relative viability: 0.498
BEN; first compound 6.325 µM
  relative viability: 0.482
BEN; first compound 20 µM
  relative viability: 0.346
LC-2-ad; first compound 0.2 µM
  relative viability: 0.546
LC-2-ad; first compound 0.6325 µM
  relative viability: 0.471
LC-2-ad; first compound 2 µM
  relative viability: 0.367
LC-2-ad; first compound 6.325 µM
  relative viability: 0.364
LC-2-ad; first compound 20 µM
  relative viability: 0.223
NCI-H1395; first compound 0.2 µM
  relative viability: 0.742
NCI-H1395; first compound 0.6325 µM
  relative viability: 0.791
NCI-H1395; first compound 2 µM
  relative viability: 0.784
NCI-H1395; first compound 6.325 µM
  relative viability: 0.68
NCI-H1395; first compound 20 µM
  relative viability: 0.374
201T; first compound 0.2 µM
  relative viability: 0.956
201T; first compound 0.6325 µM
  relative viability: 1
201T; first compound 2 µM
  relative viability: 0.896
201T; first compound 6.325 µM
  relative viability: 0.504
201T; first compound 20 µM
  relative viability: 0.377
LXF-289; first compound 0.2 µM
  relative viability: 0.167
LXF-289; first compound 0.6325 µM
  relative viability: 0.217
LXF-289; first compound 2 µM
  relative viability: 0.198
LXF-289; first compound 6.325 µM
  relative viability: 0.181
LXF-289; first compound 20 µM
  relative viability: 0.117
NCI-H2170; first compound 0.2 µM
  relative viability: 0.706
NCI-H2170; first compound 0.6325 µM
  relative viability: 0.721
NCI-H2170; first compound 2 µM
  relative viability: 0.62
NCI-H2170; first compound 6.325 µM
  relative viability: 0.478
NCI-H2170; first compound 20 µM
  relative viability: 0.206
HARA; first compound 0.2 µM
  relative viability: 0.101
HARA; first compound 2 µM
  relative viability: 0.0957
HARA; first compound 6.325 µM
  relative viability: 0.112
HARA; first compound 20 µM
  relative viability: 0.0634
HOP-62; first compound 0.2 µM
  relative viability: 0.38
HOP-62; first compound 0.6325 µM
  relative viability: 0.378
HOP-62; first compound 2 µM
  relative viability: 0.298
HOP-62; first compound 6.325 µM
  relative viability: 0.335
HOP-62; first compound 20 µM
  relative viability: 0.184
LOU-NH91; first compound 0.2 µM
  relative viability: 0.65
LOU-NH91; first compound 0.6325 µM
  relative viability: 0.657
LOU-NH91; first compound 2 µM
  relative viability: 0.51
LOU-NH91; first compound 6.325 µM
  relative viability: 0.581
LOU-NH91; first compound 20 µM
  relative viability: 0.225
COR-L 105; first compound 0.2 µM
  relative viability: 0.573
COR-L 105; first compound 0.6325 µM
  relative viability: 0.35
COR-L 105; first compound 2 µM
  relative viability: 0.341
COR-L 105; first compound 6.325 µM
  relative viability: 0.354
COR-L 105; first compound 20 µM
  relative viability: 0.338
H3255; first compound 0.2 µM
  relative viability: 0.526
H3255; first compound 0.6325 µM
  relative viability: 0.54
H3255; first compound 2 µM
  relative viability: 0.601
H3255; first compound 6.325 µM
  relative viability: 0.537
H3255; first compound 20 µM
  relative viability: 0.277
NCI-H1993; first compound 0.2 µM
  relative viability: 0.57
NCI-H1993; first compound 0.6325 µM
  relative viability: 0.538
NCI-H1993; first compound 2 µM
  relative viability: 0.539
NCI-H1993; first compound 6.325 µM
  relative viability: 0.518
NCI-H1993; first compound 20 µM
  relative viability: 0.433
HCC-78; first compound 0.2 µM
  relative viability: 0.461
HCC-78; first compound 0.6325 µM
  relative viability: 0.288
HCC-78; first compound 2 µM
  relative viability: 0.454
HCC-78; first compound 6.325 µM
  relative viability: 0.39
HCC-78; first compound 20 µM
  relative viability: 0.337
EMC-BAC-2; first compound 0.2 µM
  relative viability: 0.219
EMC-BAC-2; first compound 0.6325 µM
  relative viability: 0.3
EMC-BAC-2; first compound 2 µM
  relative viability: 0.273
EMC-BAC-2; first compound 6.325 µM
  relative viability: 0.272
EMC-BAC-2; first compound 20 µM
  relative viability: 0.202
LU99A; first compound 0.2 µM
  relative viability: 0.286
LU99A; first compound 0.6325 µM
  relative viability: 0.274
LU99A; first compound 2 µM
  relative viability: 0.288
LU99A; first compound 6.325 µM
  relative viability: 0.219
LU99A; first compound 20 µM
  relative viability: 0.177
NCI-H2126; first compound 0.2 µM
  relative viability: 0.831
NCI-H2126; first compound 0.6325 µM
  relative viability: 0.832
NCI-H2126; first compound 2 µM
  relative viability: 0.846
NCI-H2126; first compound 6.325 µM
  relative viability: 0.738
NCI-H2126; first compound 20 µM
  relative viability: 0.403
SW 900; first compound 0.2 µM
  relative viability: 0.657
SW 900; first compound 0.6325 µM
  relative viability: 0.722
SW 900; first compound 2 µM
  relative viability: 0.495
SW 900; first compound 6.325 µM
  relative viability: 0.528
SW 900; first compound 20 µM
  relative viability: 0.183
NCI-H650; first compound 0.2 µM
  relative viability: 0.774
NCI-H650; first compound 0.6325 µM
  relative viability: 0.711
NCI-H650; first compound 2 µM
  relative viability: 0.748
NCI-H650; first compound 6.325 µM
  relative viability: 0.69
NCI-H650; first compound 20 µM
  relative viability: 0.244
